Data from PMC5654414, “In vitro and in vivo comparative and competitive activity-based protein profiling of GH29 α-L-fucosidases” (Chemical Science, 2015).

Assays:
[1] = system: retaining α-L-fucosidases; test: In vivo labeling of α-L-fucosidases in mice; parameters: species or system C57Bl/6J mice
Description: (§1) The ability of 1 to label α-L-fucosidase in living mice was investigated next. Four wild-type C57Bl/6J male mice were injected with 100 μL vehicle (PBS) or PBS containing 10, 100 or 1000 pmol 1. After two hours, the mice were anesthetized, perfused with PBS and then brain, spleen, liver and kidney tissues were isolated. Tissue homogenates were prepared and each lysate was labeled prior to gel electrophoresis with red-fluorescent cyclophellitol β-aziridine JJB75, which labels β-exoglucosidases as loading control (ESI Fig. S6 ^†). Furthermore, tissue homogenates of vehicle-treated animals were labeled with excess 1 to visualize the maximal α-L-fucosidase labeling achievable in each tissue.
(§2) The appropriate ethics committee for animal experiments approved all experimental procedures. Wild-type C57Bl/6J male mice were obtained from Harlan and fed a commercially available lab diet (RMH-B; Hope Farms). Four C57BL/6J mice were injected intraperitoneally with 100 μL sterile PBS (vehicle) or PBS containing 10, 100, or 1000 pmol of ABP 1 (about 0.2 μg kg^–1, 2 μg kg^–1, and 20 μg kg^–1, respectively). At 2 h post-administration, urine was collected and the mice were anesthetized with FFM mix (25/25/50 fentanylcitrate/midazalam/H2O), blood was collected and perfused with PBS at 3.0 mL min^–1. Then urine and organs were collected and directly frozen in liquid nitrogen. Homogenates were made in 25 mM potassium phosphate buffer, pH 6.5, supplemented with 0.1% (v/v) Triton X-100 and protease inhibitor cocktail (Roche). After determination of protein concentration (BCA kit, Pierce), 50 μg total protein was incubated with 100 nM red fluorescent JJB75 and analyzed by SDS-PAGE. As controls, matching tissue homogenates of vehicle-treated animals were concomitantly labeled with 1 μM ABP 1 and 100 nM JJB75 prior to SDS-PAGE.

[2] = molecular target: T1, retaining α-L-fucosidases (Mus musculus, UniProt Q99LJ1); test: In vivo labeling of α-L-fucosidases in mice; parameters: species or system C57Bl/6J mice; conditions: any of the administered doses (10, 100, 1000 pmol), 2 h
T1 construct: from tissue; host or cells: C57Bl/6J mouse spleen, liver, kidney, brain (in vivo)
T1 sequence (Q99LJ1 18-452): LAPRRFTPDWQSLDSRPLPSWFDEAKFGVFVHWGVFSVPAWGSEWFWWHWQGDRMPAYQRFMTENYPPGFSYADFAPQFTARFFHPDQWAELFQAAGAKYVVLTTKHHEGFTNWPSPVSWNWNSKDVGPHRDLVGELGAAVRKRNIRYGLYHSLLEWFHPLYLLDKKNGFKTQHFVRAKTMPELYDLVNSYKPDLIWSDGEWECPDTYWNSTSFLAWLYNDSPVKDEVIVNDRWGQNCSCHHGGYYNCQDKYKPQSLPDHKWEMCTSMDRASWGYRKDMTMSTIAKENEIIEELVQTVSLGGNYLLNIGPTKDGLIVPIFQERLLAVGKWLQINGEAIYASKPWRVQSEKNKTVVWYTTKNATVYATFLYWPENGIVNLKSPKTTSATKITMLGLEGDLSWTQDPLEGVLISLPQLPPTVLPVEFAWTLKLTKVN
Description: as §1, §2

FUCA2 = molecular target: T2, FUCA2 (Homo sapiens, UniProt Q9BTY2); test: In vitro ABP labeling of FUCA2 overexpressed in COS cells; format: binding
T2 construct: expressed in transfected cells; host or cells: COS-7
T2 sequence (Q9BTY2 29-467): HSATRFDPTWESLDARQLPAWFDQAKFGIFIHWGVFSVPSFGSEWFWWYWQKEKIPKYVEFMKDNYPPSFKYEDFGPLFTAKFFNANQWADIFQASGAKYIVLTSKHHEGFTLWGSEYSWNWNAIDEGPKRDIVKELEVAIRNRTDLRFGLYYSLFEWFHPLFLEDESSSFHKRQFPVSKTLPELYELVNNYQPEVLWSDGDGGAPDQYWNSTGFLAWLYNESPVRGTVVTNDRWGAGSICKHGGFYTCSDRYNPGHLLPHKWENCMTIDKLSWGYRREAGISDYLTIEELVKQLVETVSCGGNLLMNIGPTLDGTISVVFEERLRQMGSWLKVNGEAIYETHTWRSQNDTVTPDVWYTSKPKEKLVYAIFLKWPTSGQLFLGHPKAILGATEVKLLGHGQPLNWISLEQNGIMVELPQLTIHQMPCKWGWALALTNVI
Source text: Subsequently, we exposed lysates of spleens from a healthy human individual and a patient suffering from Gaucher disease to ABP 1.
The coding sequences of H. sapiens FUCA1 (NCBI reference sequence XM_005245821.1, using forward primer 5′-[…]-3′ and reverse primer 5′-[…]-3′), and of H. sapiens FUCA2 (NCBI reference sequence NM_032020.4, using forward primer 5′-[…] […]-3′ and reverse primer 5′-[…] […]-3′) were amplified via PCR and cloned into pDNOR-221 and thereafter sub-cloned in pcDNA™-DEST40 vector using the Gateway system (Invitrogen). Correctness of all constructs was verified by sequencing. Confluent COS-7 cells were transfected with pcDNA3.1 empty vector (Mock) or the vector with described insert in conjunction with FuGENE (Roche).
All pre-incubations and ABP labeling-reactions occurred for 30 min at 37 °C. Total lysates (50 μg), medium (500 μg) or purified protein preparations (5 μg) were labeled with 1 μM JJB256 1 or JJB244 2, dissolved in 150 mM McIlvaine buffer, pH 4.5, incubating for 30 min at 37 °C. […] Wet slab-gels were scanned on fluorescence using a Typhoon Variable Mode Imager (Amersham Biosciences) using λEX 488 nm and λEM 520 nm (band pass filter 40 nm) for green fluorescent JJB256 1 and λEX 532 nm and λEM 610 nM (band pass filter 30 nm) for red fluorescent JJB244 2 and JJB75.

Q: How did the brain penetration ([1]; concluded from absent brain labeling) turn out when `CC1=CC(C)=[N+]2C1=C(CCCCc1cn(CCCCCCCC(=O)N3[C@@H]4[C@@H](C)[C@@H](O)[C@@H](O)[C@H](O)[C@@H]43)nn1)c1c(C)cc(C)n1[B-]2(F)F` [compound 1] was run?
A: does not penetrate the brain

Q: What about the “in vivo labeling of α-fucosidase in spleen, liver and kidney” value ([1]; injection of 1000 pmol, 2 h) of the same compound?
A: substantial labeling

Q: And the “in vivo labeling of retaining α-L-fucosidases in spleen, liver and kidney” value ([1]; intraperitoneal, 10, 100 or 1000 pmol, 2 h)?
A: dose-dependent labeling

Q: What about the “in vivo brain FUCA1 labeling” value [2] of the same compound?
A: no in vivo brain FUCA1 labeling was observed

Q: What about the labeling of enzyme (FUCA2) of the same compound?
A: labeled
